The source made the active and inactive calls.
Legend:
[1] = growth suppression of beta-catenin-knockout colon cells, dose response, cell-based, HCT116, human colon tumor (AID 1045); assay type: functional;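 also: HCT116 colon tumor cells with beta catenin knocked out; cells exposed to compound for 60 hours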
[2] = growth suppression of PTEN-null colon cells, dose response, cell-based, HCT116 PTEN knockout (AID 1047); assay type: functional;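 also: HCT116 colon tumor cells with PTEN knocked out; cells exposed to compound for 60 hours before readout; potency for loss of cell viability measured by luminescence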
cells [3] = assay type: functional, cell-based
cells [4] = assay type: functional, cell-based; remark: listed apart in the source
[5] = target: FAD-linked sulfhydryl oxidase ALR (Homo sapiens, UniProt P55789); test: inhibitors of human ALR sulfhydryl oxidase, dose response, biochemical, H2O2 detection, luminescence, cherry-pick (AID 493248)
FAD-linked sulfhydryl oxidase ALR, sequence (P55789 whole entry, the tested form may be a part): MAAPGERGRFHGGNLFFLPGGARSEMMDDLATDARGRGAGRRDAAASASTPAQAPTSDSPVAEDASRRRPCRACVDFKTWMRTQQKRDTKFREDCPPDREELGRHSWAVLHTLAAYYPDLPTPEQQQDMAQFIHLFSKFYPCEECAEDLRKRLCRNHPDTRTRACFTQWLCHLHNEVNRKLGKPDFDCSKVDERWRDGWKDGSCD

Fatty acid synthase [6] = target: T1, Fatty acid synthase (Homo sapiens, UniProt P49327); test: FAS thioesterase domain inhibitors, dose response, biochemical, endpoint fluorescence intensity, uHTS hits (AID 624327); assay type: functional;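 also: fluorescence from hydrolysis of an O-methyl fluorescein acyl ester substrate by the enzyme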
T1 sequence (P49327 whole entry, the tested form may be a part): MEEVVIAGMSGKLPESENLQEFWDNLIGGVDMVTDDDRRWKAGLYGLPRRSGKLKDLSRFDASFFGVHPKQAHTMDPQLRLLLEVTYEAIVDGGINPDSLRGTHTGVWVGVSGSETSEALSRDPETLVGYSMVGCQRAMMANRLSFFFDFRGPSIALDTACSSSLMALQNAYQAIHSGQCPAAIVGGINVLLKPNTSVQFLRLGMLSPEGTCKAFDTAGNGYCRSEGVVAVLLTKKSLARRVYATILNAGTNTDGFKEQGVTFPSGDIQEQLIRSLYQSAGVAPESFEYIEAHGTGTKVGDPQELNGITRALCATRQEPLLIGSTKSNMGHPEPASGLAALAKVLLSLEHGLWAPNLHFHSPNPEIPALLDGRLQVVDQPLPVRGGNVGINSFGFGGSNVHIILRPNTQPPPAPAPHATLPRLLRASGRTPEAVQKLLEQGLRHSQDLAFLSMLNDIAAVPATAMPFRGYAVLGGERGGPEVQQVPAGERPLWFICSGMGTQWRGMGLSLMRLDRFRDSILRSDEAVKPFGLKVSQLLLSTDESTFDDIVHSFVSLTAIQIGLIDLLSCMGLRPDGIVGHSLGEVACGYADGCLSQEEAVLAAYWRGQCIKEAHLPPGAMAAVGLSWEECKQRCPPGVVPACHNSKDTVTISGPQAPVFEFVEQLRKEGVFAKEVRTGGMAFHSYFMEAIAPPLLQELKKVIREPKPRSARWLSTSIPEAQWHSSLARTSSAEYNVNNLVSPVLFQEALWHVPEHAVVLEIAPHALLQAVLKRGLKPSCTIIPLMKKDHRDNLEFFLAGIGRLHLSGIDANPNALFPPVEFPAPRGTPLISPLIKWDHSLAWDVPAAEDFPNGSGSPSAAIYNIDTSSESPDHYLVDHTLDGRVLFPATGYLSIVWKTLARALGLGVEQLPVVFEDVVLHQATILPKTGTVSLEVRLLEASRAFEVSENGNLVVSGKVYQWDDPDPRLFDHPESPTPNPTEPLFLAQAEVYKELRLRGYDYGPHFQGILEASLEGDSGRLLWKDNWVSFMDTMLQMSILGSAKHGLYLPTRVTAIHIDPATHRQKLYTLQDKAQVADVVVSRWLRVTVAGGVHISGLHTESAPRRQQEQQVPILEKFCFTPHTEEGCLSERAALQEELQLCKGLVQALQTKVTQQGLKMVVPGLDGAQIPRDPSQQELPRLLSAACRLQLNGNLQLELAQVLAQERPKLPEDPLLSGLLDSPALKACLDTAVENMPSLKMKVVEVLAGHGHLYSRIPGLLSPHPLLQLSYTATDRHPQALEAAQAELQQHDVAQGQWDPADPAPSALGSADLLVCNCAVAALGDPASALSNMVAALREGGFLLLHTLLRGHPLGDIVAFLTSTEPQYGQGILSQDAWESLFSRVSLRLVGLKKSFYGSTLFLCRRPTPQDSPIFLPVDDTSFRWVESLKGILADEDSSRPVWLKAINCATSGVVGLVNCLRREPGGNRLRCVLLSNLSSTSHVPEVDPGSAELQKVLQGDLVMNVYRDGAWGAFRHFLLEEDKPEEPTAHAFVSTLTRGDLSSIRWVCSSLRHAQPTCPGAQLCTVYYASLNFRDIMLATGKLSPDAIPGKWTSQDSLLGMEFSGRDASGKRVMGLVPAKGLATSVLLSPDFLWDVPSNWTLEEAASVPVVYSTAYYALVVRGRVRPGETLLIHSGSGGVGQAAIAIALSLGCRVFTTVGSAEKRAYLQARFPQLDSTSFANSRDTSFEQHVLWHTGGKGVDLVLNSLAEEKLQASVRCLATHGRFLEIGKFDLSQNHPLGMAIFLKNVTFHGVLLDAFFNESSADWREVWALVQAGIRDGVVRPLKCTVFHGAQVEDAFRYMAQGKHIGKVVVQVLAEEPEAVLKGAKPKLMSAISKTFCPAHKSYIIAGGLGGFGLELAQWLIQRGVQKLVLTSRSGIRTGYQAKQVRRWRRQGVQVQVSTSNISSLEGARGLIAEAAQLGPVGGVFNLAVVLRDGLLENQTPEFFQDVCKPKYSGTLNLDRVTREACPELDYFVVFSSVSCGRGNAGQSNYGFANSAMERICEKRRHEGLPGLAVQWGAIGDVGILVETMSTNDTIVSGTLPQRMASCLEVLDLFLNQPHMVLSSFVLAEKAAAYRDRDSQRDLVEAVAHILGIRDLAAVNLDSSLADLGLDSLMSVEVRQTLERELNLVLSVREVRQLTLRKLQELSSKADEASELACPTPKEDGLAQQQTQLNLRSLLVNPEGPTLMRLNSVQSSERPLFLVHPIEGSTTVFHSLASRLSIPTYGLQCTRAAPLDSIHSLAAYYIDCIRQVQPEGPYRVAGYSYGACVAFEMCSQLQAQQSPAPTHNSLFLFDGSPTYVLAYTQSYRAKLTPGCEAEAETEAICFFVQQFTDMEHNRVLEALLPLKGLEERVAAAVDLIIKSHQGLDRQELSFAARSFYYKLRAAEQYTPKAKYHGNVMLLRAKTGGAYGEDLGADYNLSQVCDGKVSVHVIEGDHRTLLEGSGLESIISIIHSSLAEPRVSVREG

Fatty acid synthase [7] = target: T1, Fatty acid synthase; test: FAS thioesterase domain inhibitors, dose response, biochemical, kinetic fluorescence intensity (AID 624326); assay type: functional;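 also: rate of fluorescence rise from hydrolysis of a fluorogenic O-methyl fluorescein ester substrate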
Paired box protein Pax-8 = Paired box protein Pax-8 (Homo sapiens, UniProt Q06710); test: inhibitors of PAX8-driven TPO luciferase reporter, dose response, RMG-I cells, cherry-pick (AID 687027); assay type: functional, cell-based;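 also: luciferase reporter driven by Pax8 target thyroperoxidase promoter measured by SteadyGlo luminescence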
Paired box protein Pax-8, sequence (Q06710 whole entry): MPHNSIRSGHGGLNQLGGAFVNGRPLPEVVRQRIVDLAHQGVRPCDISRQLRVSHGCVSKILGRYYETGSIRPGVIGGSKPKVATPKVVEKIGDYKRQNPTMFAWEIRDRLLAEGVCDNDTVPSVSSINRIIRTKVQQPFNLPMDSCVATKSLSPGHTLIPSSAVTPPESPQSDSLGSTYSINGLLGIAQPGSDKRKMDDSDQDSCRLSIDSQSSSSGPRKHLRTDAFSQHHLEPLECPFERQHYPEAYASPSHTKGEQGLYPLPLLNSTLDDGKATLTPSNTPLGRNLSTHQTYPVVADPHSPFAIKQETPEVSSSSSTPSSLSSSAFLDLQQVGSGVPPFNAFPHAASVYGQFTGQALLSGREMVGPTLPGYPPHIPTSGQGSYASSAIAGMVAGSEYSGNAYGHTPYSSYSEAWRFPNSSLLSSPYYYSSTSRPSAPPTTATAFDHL

[8] = target: T2, Corticotropin-releasing factor receptor 2/Corticotropin-releasing factor-binding protein (Homo sapiens, UniProt P24387+Q13324); test: activators of CRF receptor 2 with binding protein – uHTS hits, confirmation (AID 602473); assay type: functional; settings: read-out: EC50_Mean
T2 sequence (Q13324 whole entry): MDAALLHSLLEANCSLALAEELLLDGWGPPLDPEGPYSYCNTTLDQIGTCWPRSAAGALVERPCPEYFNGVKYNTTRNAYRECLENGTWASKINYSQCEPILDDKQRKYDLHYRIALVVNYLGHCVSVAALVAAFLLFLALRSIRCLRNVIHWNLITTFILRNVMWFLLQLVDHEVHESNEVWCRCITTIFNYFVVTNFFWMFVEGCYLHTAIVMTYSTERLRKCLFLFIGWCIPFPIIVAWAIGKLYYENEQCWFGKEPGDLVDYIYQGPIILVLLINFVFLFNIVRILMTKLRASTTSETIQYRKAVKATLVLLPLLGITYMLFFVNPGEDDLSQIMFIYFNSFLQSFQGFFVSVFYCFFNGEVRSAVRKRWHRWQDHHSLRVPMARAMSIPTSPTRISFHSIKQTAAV
T2 sequence (P24387 whole entry): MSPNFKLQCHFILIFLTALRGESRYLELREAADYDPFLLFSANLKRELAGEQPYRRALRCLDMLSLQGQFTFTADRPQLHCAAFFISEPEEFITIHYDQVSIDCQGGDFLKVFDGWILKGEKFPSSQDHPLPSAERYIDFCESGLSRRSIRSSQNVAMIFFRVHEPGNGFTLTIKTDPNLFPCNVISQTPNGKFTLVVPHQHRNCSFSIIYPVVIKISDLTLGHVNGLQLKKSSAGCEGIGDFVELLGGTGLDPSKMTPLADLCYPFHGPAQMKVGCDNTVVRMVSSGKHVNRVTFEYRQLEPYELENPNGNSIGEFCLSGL

Vero = test: cells; assay type: functional; settings: Chlorocebus sabaeus
[9] = A549 cell cytotoxicity, dose response, cytotoxicity control, plate reader, cherry-pick, antagonist series (AID 743412); assay type: functional, cell-based
[10] = MC4R antagonists, dose response, counter-screen for LGR2 antagonist project, cell-based, plate reader, cherry pick (AID 743444); assay type: functional;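 also: transfected HEK 293 cells stimulated with alpha-MSH peptide; potency of inhibitors of the alpha-MSH evoked signal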
[11] = HepG2 cell cytotoxicity, dose response, cytotoxicity control, plate reader, cherry-pick, antagonist series (AID 743416); assay type: functional, cell-based
cells [12] = assay type: functional
[13] = target: T3, Rac GTPase-activating protein 1 (Homo sapiens, UniProt Q9H0H5); test: MgcRacGAP GTPase-activating activity inhibitors, confirmation, biochemical, ADP Hunter fluorescence, primary and confirmatory (AID 624330); assay type: functional
T3 sequence (Q9H0H5 whole entry): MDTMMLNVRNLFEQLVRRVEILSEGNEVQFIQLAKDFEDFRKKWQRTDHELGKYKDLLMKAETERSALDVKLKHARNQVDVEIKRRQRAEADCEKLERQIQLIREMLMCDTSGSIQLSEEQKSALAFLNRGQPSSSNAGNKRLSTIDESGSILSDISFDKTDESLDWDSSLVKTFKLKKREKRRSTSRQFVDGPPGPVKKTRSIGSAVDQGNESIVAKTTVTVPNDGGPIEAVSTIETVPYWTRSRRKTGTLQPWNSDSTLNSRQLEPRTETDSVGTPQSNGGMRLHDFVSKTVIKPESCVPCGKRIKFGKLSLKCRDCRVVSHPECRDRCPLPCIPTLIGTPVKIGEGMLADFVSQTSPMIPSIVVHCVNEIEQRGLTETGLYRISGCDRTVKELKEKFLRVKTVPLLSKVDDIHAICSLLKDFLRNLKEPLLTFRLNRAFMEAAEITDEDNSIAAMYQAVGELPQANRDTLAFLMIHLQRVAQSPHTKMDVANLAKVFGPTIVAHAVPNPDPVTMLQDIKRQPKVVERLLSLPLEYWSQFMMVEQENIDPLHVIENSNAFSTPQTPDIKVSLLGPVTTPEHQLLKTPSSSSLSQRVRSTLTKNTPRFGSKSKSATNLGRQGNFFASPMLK

[14] = Luminescence Cell-Based Dose Retest to Confirm Inhibitors of Cancer Stem Cells. [Related pubchem assays (depositor defined):AID2717, AID2721]; assay type: functional; settings: Homo sapiens

## Cc1sc2nc(CN3CCCC3)nc(Cl)c2c1C
[1]
  EC50: 11.2 µM (active)
[2]
  EC50: 16.2 µM (active)

## COc1ccc(C(CC(=O)Nc2ccccc2OC)n2cccc2)cc1 (stereo not drawn)
Cells [3]
  EC50: > 350 µM (not active)
Cells [4]
  EC50: 2.27 µM (active)

## Cn1c(CNc2ccc(Br)cc2)nc2ccccc21
[5]
  AC50: 14.6 µM (active)

## Cc1noc(/C=C/c2ccco2)c1S(=O)(=O)N1CCC(C(=O)N2CCc3ccccc3C2)CC1
[1]
  EC50: 26.9 µM (active)
[2]
  EC50: 24.8 µM (active)

## Cc1cccc(Oc2ccc(NC(=O)c3ccccc3C(=O)O)cc2)c1
[5]
  AC50: 5.07 µM (active)

## C[C@H](CO)N1C[C@H](C)[C@@H](CN(C)C(=O)Nc2ccccc2)Oc2c(NC(=O)Nc3ccc(C(F)(F)F)cc3)cccc2C1=O
Fatty acid synthase [6]
  IC50: 2.24 µM (active)
Fatty acid synthase [7]
  IC50: 2.08 µM (active)

## O=C(Nc1nc2ccc([N+](=O)[O-])cc2s1)c1c(F)cccc1F
Cells [3]
  EC50: > 350 µM (not active)
Cells [4]
  EC50: 31.2 µM (active)

## Cc1cccc(C)c1NC(=O)NCCCN1CCN(c2ccccc2)CC1
[5]
  AC50: 89.4 µM (active)

## C[C@@H]1CN([C@H](C)CO)C(=O)c2cc(NC(=O)Nc3ccc(C(F)(F)F)cc3)ccc2O[C@@H](C)CCCCO[C@H]1CN(C)Cc1ccc(Cl)c(Cl)c1
Paired box protein Pax-8
  AC50: 6.74 µM (active)

## CCCCn1c(NC(C)CC)nc2c1c(=O)[nH]c(=O)n2C (stereo not drawn)
[5]
  AC50: 4.01 µM (active)

## COC(=O)c1scc(C)c1NC(=O)c1ccccc1F
[8]
  EC50: > 53 µM (inactive)

## O=[N+]([O-])c1cc(-c2csc(NCCc3nc4cc(C(F)(F)F)ccc4n3CCCO)n2)ccc1Cl
Fatty acid synthase [6]
  IC50: 5.17 µM (active)
Fatty acid synthase [7]
  IC50: 3.93 µM (active)

## CC(=O)Nc1ccc(S(=O)(=O)N2CN(c3ccc(C)cc3)c3nc4ccccc4nc32)cc1
Vero
  CC50: > 25 µM (active)

## COc1cc(C(=O)NCC(c2cccnc2)N2CCN(c3ccccc3)CC2)cc(OC)c1OC (stereo not drawn)
[5]
  AC50: 3.41 µM (active)

## O=C(CSc1nnc(SCc2cccc3ccccc23)s1)N=Nc1c(O)[nH]c2ccccc12
[1]
  EC50: 10.8 µM (active)
[2]
  EC50: 13.6 µM (active)

## OC[C@H]1[C@@H](c2ccc(-c3ccc(F)cc3)cc2)[C@@H]2CN(Cc3ccccn3)CCCCN12
[9]
  AC50: 22 µM (active)
[10]
  AC50: 37.5 µM (active)
[11]
  AC50: 19.1 µM (active)

## Cc1cc(C)nc(NC(N)=Nc2ccc(CC(=O)OC(C)C)cc2)n1
[8]
  EC50: 2.56 µM (active)

## Cc1cccc(NC(=O)COc2ccc(Br)cc2)n1
Cells [12]
  IC50: 23.4 µM (active)

## COc1cccc(NC(=S)N(CCCN2CCOCC2)Cc2cn(C)c3ccccc23)c1
Cells [3]
  EC50: > 350 µM (not active)
Cells [4]
  EC50: > 350 µM (not active)

## CCc1nonc1NC(=O)COc1ccc(Cl)c(C)c1
Cells [12]
  IC50: 17 µM (active)

## CC(Cc1ccccc1)NC(=O)c1cc([N+](=O)[O-])ccc1Cl (stereo not drawn)
Fatty acid synthase [6]
  IC50: 5.69 µM (active)
Fatty acid synthase [7]
  IC50: 5.85 µM (active)

## Cc1ccc(NS(=O)(=O)c2ccc(C(=O)N3CCCC(C(F)(F)F)C3)cc2)cc1 (stereo not drawn)
[8]
  EC50: 5.17 µM (active)

## CN(Cc1cnn(-c2ccccc2)c1)C(=O)c1ccc(S(=O)(=O)NCc2ccco2)cc1
Vero
  CC50: 14.4 µM (active)

## CC1(C)CS/C(=N\Cc2ccccc2)N1C(=O)c1cccc([N+](=O)[O-])c1
[8]
  EC50: 7.16 µM (active)

## CC(C)CCn1c(SCCc2ccccc2)nc2c1c(=O)[nH]c(=O)n2C
[1]
  EC50: 35.6 µM (active)
[2]
  EC50: 30.9 µM (active)

## O=[N+]([O-])c1cc(-c2csc(NCCc3nc4cc(Cl)c(Cl)cc4n3CCCO)n2)ccc1Cl
Fatty acid synthase [6]
  IC50: 2.49 µM (active)
Fatty acid synthase [7]
  IC50: 2.55 µM (active)

## CC(C)(C)N1C(=O)[C@H]2[C@@H](c3ccc(Br)cc3)N3C(=O)N(c4ccc(Br)cc4)C(=O)[C@@]3(Cc3ccccc3)[C@H]2C1=O
Fatty acid synthase [6]
  IC50: 10.3 µM (active)
Fatty acid synthase [7]
  IC50: 10.5 µM (active)

## Cc1cc(-c2cccs2)c2c(N)c(C(=O)c3ccc4c(c3)OCO4)sc2n1
[8]
  EC50: 7.29 µM (active)

## COc1cccc(/C=N/NC(=O)c2ccc([N+](=O)[O-])cc2Cl)c1O
Cells [3]
  EC50: 19.1 µM (active)
Cells [4]
  EC50: 172 µM (active)

## O=[N+]([O-])c1cccc(CN2CCN(c3cccc4[nH]ccc34)CC2)c1
[5]
  AC50: 2.06 µM (active)
[13]
  IC50: 45.4 µM (active)

## O=C(CCc1ccccc1)N1CCN(c2ccc(F)cc2)CC1
[5]
  AC50: 13.8 µM (active)

## S=C(NCCc1ccccc1)N1Cc2cc(Br)ccc2-n2nncc2C1
Fatty acid synthase [6]
  IC50: 12.1 µM (active)
Fatty acid synthase [7]
  IC50: 7.04 µM (active)

## COc1cc(N(C(=O)Cc2cccs2)C(C(=O)NC2CCCCC2)c2ccc(C)cc2)ccc1-n1cnnn1 (stereo not drawn)
[1]
  EC50: 8.86 µM (active)
[2]
  EC50: 8.44 µM (active)

## CC1(C)CC(=O)CC(C2(O)C(=O)N(Cc3ccccc3)c3ccccc32)O1 (stereo not drawn)
[1]
  EC50: 17.4 µM (active)
[2]
  EC50: 17.7 µM (active)

## CCOC(=O)COc1ccc2c(=O)cc(-c3ccccc3)oc2c1 [EFLOXATE]
Cells [12]
  IC50: < 0.1 µM (active)

## COc1ccc(-c2csc3nc(-c4ccccc4F)oc(=O)c23)cc1
Fatty acid synthase [6]
  IC50: 2.83 µM (active)
Fatty acid synthase [7]
  IC50: 1.16 µM (active)

## CCOC(CNCc1cc(C)c2[nH]c3ccccc3c2c1C)OCC
Vero
  CC50: 22.6 µM (active)

## COc1ccc(NC(=O)Nc2ccc(Br)cn2)cc1
Cells [3]
  EC50: > 350 µM (not active)
Cells [4]
  EC50: > 350 µM (not active)

## COC(=O)C1CSC(C(=O)OC)N1C(=O)CN1CCN(c2ccccc2)CC1 (stereo not drawn)
[5]
  AC50: 2.84 µM (active)

## COc1ccc(CNC(=O)/C=C/c2cc([N+](=O)[O-])ccc2OC(F)F)cc1OC
Fatty acid synthase [7]
  IC50: 3.28 µM (active)

## Cc1cccc(OCCn2cccc2/C=C2/C(=O)NC(=O)N(Cc3ccco3)C2=O)c1
Cells [3]
  EC50: > 350 µM (not active)
Cells [4]
  EC50: > 350 µM (not active)

## Cc1nnc2sc(SCc3cccc(Cl)c3)nn2c1=O
[5]
  AC50: 0.175 µM (active)
[14]
  AC50: 34.2 µM (active)

## C[C@H](CO)N1C[C@H](C)[C@H](CN(C)C(=O)Cc2ccccc2)OCCCC[C@H](C)Oc2ccc(NC(=O)Nc3ccc(C(F)(F)F)cc3)cc2C1=O
[10]
  AC50: 4.79 µM (active)
[11]
  AC50: 35 µM (active)

## Cc1ccc(-c2nc(Nc3cccc(C)c3)sc2CC(=O)O)cc1
[5]
  AC50: 9.95 µM (active)

From ChEMBL document CHEMBL1201862, “PubChem BioAssay data set” (2004)
